Tests used:
Assay type in all cases: in vivo
[1] = system: ryegrass, Italian (Italian ryegrass, Lolium multiflorum); experiment: Test A preemergence; details: Lolium multiflorum, pre-emergence, 240 h, preemergence, 0 to 100 scale where 0 is no effect and 100 is complete control, read-out: Ryegrass, Italian plant response rating; for pest or weed control at 125 g/ha: 125 g ai/ha, approx. 10 d; for pest or weed control at 500 g/ha: 500 g ai/ha
Summary of the method: (§1)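 Greenhouse, ~10 d after spray; visual injury vs untreated controls, 0 = no effect, 100 = complete control. Preemergence: directed soil spray over planted seeds. Postemergence: plants 2–10 cm, 1–2 leaf stage. Loam/sand blend. Compound in non-phytotoxic solvent with surfactant.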

Kochia (Kochia scoparia) [2] = experiment: Test A preemergence; details: Bassia scoparia, pre-emergence, 240 h, preemergence, 0 to 100 scale where 0 is no effect and 100 is complete control, read-out: Kochia plant response rating; for pest or weed control at 125 g/ha: 125 g ai/ha, approx. 10 d; for pest or weed control at 500 g/ha: 500 g ai/ha
Summary of the method: as §1

[3] = system: pigweed (Amaranthus retroflexus); experiment: Test A preemergence; details: Amaranthus retroflexus, pre-emergence, 240 h, preemergence, 0 to 100 scale where 0 is no effect and 100 is complete control, read-out: Pigweed plant response rating; for pest or weed control at 125 g/ha: 125 g ai/ha, approx. 10 d; for pest or weed control at 500 g/ha: 500 g ai/ha
[4] = system: giant foxtail (Setaria faberii); experiment: Test A preemergence; details: Setaria faberi, pre-emergence, 240 h, preemergence, 0 to 100 scale where 0 is no effect and 100 is complete control, read-out: Foxtail, Giant plant response rating; for pest or weed control at 125 g/ha: 125 g ai/ha, approx. 10 d; for pest or weed control at 500 g/ha: 500 g ai/ha
Summary of the method: as §1

[5] = system: ragweed (common ragweed, Ambrosia elatior); experiment: Test A preemergence; details: Ambrosia artemisiifolia, pre-emergence, 240 h, preemergence, 0 to 100 scale where 0 is no effect and 100 is complete control, read-out: Ragweed plant response rating; for pest or weed control at 125 g/ha: 125 g ai/ha, approx. 10 d; for pest or weed control at 500 g/ha: 500 g ai/ha
Summary of the method: as §1

[6] = system: barnyardgrass (Echinochloa crus-galli); experiment: Test A preemergence; details: Echinochloa crus-galli, pre-emergence, 240 h, preemergence, read-out: Barnyardgrass plant response rating; for pest or weed control at 125 g/ha: 125 g ai/ha, approx. 10 d; for pest or weed control at 500 g/ha: 500 g ai/ha
Summary of the method: as §1

[7] = system: ryegrass, Italian (Italian ryegrass, Lolium multiflorum); experiment: Test A postemergence; details: Lolium multiflorum, post-emergence, 240 h, postemergence, read-out: Ryegrass, Italian plant response rating; for pest or weed control at 125 g/ha: 125 g ai/ha, visual injury on 0 to 100 scale (0 no effect, 100 complete control), approx. 10 d; for pest or weed control at 500 g/ha: 500 g ai/ha, 0 to 100 scale, 0 is no effect, 100 is complete control
Summary of the method: as §1

Kochia (Kochia scoparia) [8] = experiment: Test A postemergence; details: Bassia scoparia, post-emergence, 240 h, postemergence, read-out: Kochia plant response rating; for pest or weed control at 125 g/ha: 125 g ai/ha, visual injury on 0 to 100 scale (0 no effect, 100 complete control), approx. 10 d; for pest or weed control at 500 g/ha: 500 g ai/ha, 0 to 100 scale, 0 is no effect, 100 is complete control
Summary of the method: as §1

[9] = system: Galium (catchweed bedstraw, Galium aparine); experiment: Test A postemergence; details: Galium, post-emergence, 240 h, postemergence, read-out: Galium plant response rating; for pest or weed control at 125 g/ha: 125 g ai/ha, visual injury on 0 to 100 scale (0 no effect, 100 complete control), approx. 10 d; for pest or weed control at 500 g/ha: 500 g ai/ha, 0 to 100 scale, 0 is no effect, 100 is complete control
Summary of the method: as §1

[10] = system: pigweed (Amaranthus retroflexus); experiment: Test A postemergence; details: Amaranthus retroflexus, post-emergence, 240 h, postemergence, read-out: Pigweed plant response rating; for pest or weed control at 125 g/ha: 125 g ai/ha, visual injury on 0 to 100 scale (0 no effect, 100 complete control), approx. 10 d; for pest or weed control at 500 g/ha: 500 g ai/ha, 0 to 100 scale, 0 is no effect, 100 is complete control
Summary of the method: as §1

[11] = system: wheat (Triticum aestivum); experiment: Test A postemergence; details: Triticum aestivum, post-emergence, 240 h, postemergence, read-out: Wheat plant response rating; for plant injury at 125 g/ha: 125 g ai/ha, visual injury on 0 to 100 scale (0 no effect, 100 complete control), approx. 10 d; for plant injury at 500 g/ha: 500 g ai/ha, 0 to 100 scale, 0 is no effect, 100 is complete control
Summary of the method: as §1

[12] = system: giant foxtail (Setaria faberii); experiment: Test A postemergence; details: Setaria faberi, post-emergence, 240 h, postemergence, read-out: Foxtail, Giant plant response rating; for pest or weed control at 125 g/ha: 125 g ai/ha, visual injury on 0 to 100 scale (0 no effect, 100 complete control), approx. 10 d; for pest or weed control at 500 g/ha: 500 g ai/ha, 0 to 100 scale, 0 is no effect, 100 is complete control
Summary of the method: as §1

[13] = system: ragweed (common ragweed, Ambrosia elatior); experiment: Test A postemergence; details: Ambrosia artemisiifolia, post-emergence, 240 h, postemergence, read-out: Ragweed plant response rating; for pest or weed control at 125 g/ha: 125 g ai/ha, visual injury on 0 to 100 scale (0 no effect, 100 complete control), approx. 10 d; for pest or weed control at 500 g/ha: 500 g ai/ha, 0 to 100 scale, 0 is no effect, 100 is complete control
Summary of the method: as §1

corn (Zea mays) = experiment: Test A postemergence; details: Zea mays, post-emergence, 240 h, postemergence, read-out: Corn plant response rating; for plant injury at 125 g/ha: 125 g ai/ha, visual injury on 0 to 100 scale (0 no effect, 100 complete control), approx. 10 d; for plant injury at 500 g/ha: 500 g ai/ha, 0 to 100 scale, 0 is no effect, 100 is complete control
Summary of the method: as §1

[14] = system: blackgrass (Alopecurus myosuroides); experiment: Test A postemergence; details: Alopecurus myosuroides, post-emergence, 240 h, postemergence, read-out: Blackgrass plant response rating; for pest or weed control at 125 g/ha: 125 g ai/ha, visual injury on 0 to 100 scale (0 no effect, 100 complete control), approx. 10 d; for pest or weed control at 500 g/ha: 500 g ai/ha, 0 to 100 scale, 0 is no effect, 100 is complete control
Summary of the method: as §1

[15] = system: barnyardgrass (Echinochloa crus-galli); experiment: Test A postemergence; details: Echinochloa crus-galli, post-emergence, 240 h, postemergence, read-out: Barnyardgrass plant response rating; for pest or weed control at 125 g/ha: 125 g ai/ha, visual injury on 0 to 100 scale (0 no effect, 100 complete control), approx. 10 d; for pest or weed control at 500 g/ha: 500 g ai/ha, 0 to 100 scale, 0 is no effect, 100 is complete control
Summary of the method: as §1

[16] = 0 to 100 scale where 0 is no effect and 100 is complete control

With `CN1C[C@H](c2cc(C(F)F)cs2)[C@@H](C(=O)Nc2cccc(F)c2F)C1=O` [Compound 1121] the pest or weed control at 125 g/ha [1] was 50%, the pest or weed control at 500 g/ha [1] was 60% and the pest or weed control at 125 g/ha (Kochia (Kochia scoparia) [2]) was 80%. For the same compound, the pest or weed control at 500 g/ha (Kochia (Kochia scoparia) [2]) was 100%, the pest or weed control at 125 g/ha [3] was 0% and the pest or weed control at 500 g/ha [3] was 50%. For the same compound, the pest or weed control at 125 g/ha [4] was 90%, the pest or weed control at 500 g/ha [4] was 100% and the pest or weed control at 125 g/ha [5] was 50%. The pest or weed control at 500 g/ha [5] was 100%, the pest or weed control at 125 g/ha [6, 16] was 90% and the pest or weed control at 500 g/ha ([6]; visual injury rating about 10 d after treatment, 0 to 100 scale (0 no effect, 100 complete control)) was 100%. For the same compound, the pest or weed control at 125 g/ha [7] was 40%, the pest or weed control at 500 g/ha [7] was 70% and the pest or weed control at 125 g/ha (Kochia (Kochia scoparia) [8]) was 50%. The pest or weed control at 500 g/ha (Kochia (Kochia scoparia) [8]) was 70%, the pest or weed control at 125 g/ha [9] was 50% and the pest or weed control at 500 g/ha [9] was 60%. For the same compound, the pest or weed control at 125 g/ha [10] was 20%, the pest or weed control at 500 g/ha [10] was 40% and the plant injury at 125 g/ha [11] was 30%. The plant injury at 500 g/ha [11] was 60%, the pest or weed control at 125 g/ha [12] was 90% and the pest or weed control at 500 g/ha [12] was 90%. The pest or weed control at 125 g/ha [13] was 20%, the pest or weed control at 500 g/ha [13] was 40% and the plant injury at 125 g/ha (corn (Zea mays)) was 50%. It also gave a plant injury at 500 g/ha (corn (Zea mays)) of 90%, a pest or weed control at 125 g/ha [14] of 40% and a pest or weed control at 500 g/ha [14] of 60%. For the same compound, the pest or weed control at 125 g/ha [15] was 90% and the pest or weed control at 500 g/ha [15] was 90%.
`CCc1cc(CC)cc([C@H]2CNC(=O)[C@@H]2C(=O)Nc2cccc(F)c2F)c1` [Compound 1139] gave a pest or weed control at 125 g/ha [1] of 30%, a pest or weed control at 500 g/ha [1] of 70% and a pest or weed control at 125 g/ha (Kochia (Kochia scoparia) [2]) of 30%. For the same compound, the pest or weed control at 500 g/ha (Kochia (Kochia scoparia) [2]) was 60%, the pest or weed control at 125 g/ha [3] was 0% and the pest or weed control at 500 g/ha [3] was 0%. For the same compound, the pest or weed control at 125 g/ha [4] was 90%, the pest or weed control at 500 g/ha [4] was 90% and the pest or weed control at 125 g/ha [5] was 50%. For the same compound, the pest or weed control at 500 g/ha [5] was 50%, the pest or weed control at 125 g/ha [6, 16] was 90% and the pest or weed control at 500 g/ha [6, 16] was 90%. It also gave a pest or weed control at 125 g/ha [7] of 40%, a pest or weed control at 500 g/ha [7] of 50% and a pest or weed control at 125 g/ha (Kochia (Kochia scoparia) [8]) of 0%. For the same compound, the pest or weed control at 500 g/ha (Kochia (Kochia scoparia) [8]) was 0%, the pest or weed control at 125 g/ha [9] was 50% and the pest or weed control at 500 g/ha [9] was 60%. For the same compound, the pest or weed control at 125 g/ha [10] was 0%, the pest or weed control at 500 g/ha [10] was 0% and the plant injury at 125 g/ha [11] was 50%. It also gave a plant injury at 500 g/ha [11] of 70%, a pest or weed control at 125 g/ha [12] of 40% and a pest or weed control at 500 g/ha [12] of 70%. For the same compound, the pest or weed control at 125 g/ha [13] was 0%, the pest or weed control at 500 g/ha [13] was 40% and the plant injury at 125 g/ha (corn (Zea mays)) was 60%. For the same compound, the plant injury at 500 g/ha (corn (Zea mays)) was 80%, the pest or weed control at 125 g/ha [14] was 40% and the pest or weed control at 500 g/ha [14] was 60%. It also gave a pest or weed control at 125 g/ha [15] of 60% and a pest or weed control at 500 g/ha [15] of 90%.

Reference: patent US12077503B2, “Substituted cyclic amides and their use as herbicides” (FMC CORPORATION, priority 2015, dated 2024)
